US10420734B2, “Method of treating cancer using selective estrogen receptor modulators” (Duke University, priority 2014, dated 2019)

Columns and labels:
[1] = tested on: ESR1 target gene trefoil factor 1 (TFF1); experiment: E2-dependent ESR1 target gene (TFF1) mRNA in MCF7 cells, RT qPCR; format: cell-based; details: 10^-9 M E2, ligand 10^-11-10^-6 M, 24 hours
Description: RNA isolation and analysis was performed as described (Wardell et al., (2001) Biochem Pharmacol 82 (2):122-130). mRNA abundance was calculated using the ΔΔCT method (Wardell et al., (2001) Biochem Pharmacol 82 (2):122-130). Primer sequences are available upon request.
The ability of RAD1901 (FIG. 5A) to modulate the […] estradiol (E2) dependent transcriptional activity of the human estrogen receptor alpha (ESR1) and human estrogen receptor beta (ESR2) was assessed in transiently transfected SKBR3 cells using a synthetic reporter gene. […] For FIG. 5B, SKBR3 cells were plated in phenol red free media supplemented with charcoal stripped FBS (CFS) 24 hours prior to transfection with an ERE-luciferase reporter together with ESR1 or ESR2 expression vectors. 24 hours after transfection, cells were treated with E2 (10 nM) together with RAD1901 (10^−10-10^−6 M) for 24 hours prior to harvest and analysis of luciferase activity normalized to co-transfected β-galactosidase control. […] DNA content as assessed by fluorescence was measured as a surrogate for cell proliferation. The relative increase in DNA fluorescence was calculated by normalizing to baseline values detected in a duplicate plate of cells that was harvested on day 1 prior to the initial treatment. […] For FIG. 5F, expression of ESR1 target genes in tumors was analyzed essentially as in (C).

ESR1 = molecular target: T1, ESR1 (Mus musculus, UniProt P19785); experiment: Uterine wet weight analysis in ovariectomized C57Bl/6 mice; format: in vivo; details: for uterine wet weight, single agent: without E2
T1 construct: tissue Charles River (mice); host or cells: uterus of ovariectomized female C57Bl/6 mice
T1 sequence (P19785 1-599): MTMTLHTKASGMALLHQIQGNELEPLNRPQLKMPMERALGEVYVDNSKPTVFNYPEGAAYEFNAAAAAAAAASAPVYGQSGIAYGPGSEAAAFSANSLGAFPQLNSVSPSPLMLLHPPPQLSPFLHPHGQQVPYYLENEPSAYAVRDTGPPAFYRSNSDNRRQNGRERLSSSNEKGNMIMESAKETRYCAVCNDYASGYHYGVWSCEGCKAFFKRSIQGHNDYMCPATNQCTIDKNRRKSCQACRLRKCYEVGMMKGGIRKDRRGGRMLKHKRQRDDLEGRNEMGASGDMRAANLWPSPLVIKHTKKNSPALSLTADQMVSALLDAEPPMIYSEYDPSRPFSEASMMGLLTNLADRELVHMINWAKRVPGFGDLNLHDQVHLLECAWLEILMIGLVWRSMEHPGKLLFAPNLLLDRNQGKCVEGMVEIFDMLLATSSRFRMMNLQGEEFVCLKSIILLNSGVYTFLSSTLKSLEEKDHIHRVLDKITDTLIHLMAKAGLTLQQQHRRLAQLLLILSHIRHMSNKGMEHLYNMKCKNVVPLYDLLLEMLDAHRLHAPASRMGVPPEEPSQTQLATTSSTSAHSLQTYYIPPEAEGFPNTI
Description: Uterine wet weight analysis: Ovariectomized (10 days prior) female C57Bl/6 mice (Charles River) were treated daily (n=5) for 3 days with vehicle or estradiol benzoate (10 μg/kg sc) as well as vehicle, raloxifene (10 mg/kg sc), or RAD1901 (0.1-100 mg/kg sc). Ligands were dissolved in corn oil (Spectrum chemicals). On day 4, mice were euthanized and tissues were retained for analysis. Uterine wet weight was calculated as a ratio of uterus weight upon removal to body weight post-mortem.
As a first step, the impact of RAD1901 on uterine wet weight in mice was evaluated. For this study, increasing doses of RAD1901 was administered daily to ovariectomized C57Bl/6 mice receiving vehicle alone or E2 (10 μg/kg; a physiological replacement dose). A group of mice receiving 10 mg/kg of raloxifene was included for comparative purposes and for reference. Ovariectomized C57Bl/6 mice (n=5) were treated daily for 3 days with (FIG. 8A) vehicle or (FIG. 8B) estradiol (10 μg/kg) together with vehicle, Ralox (10 mg/kg) or RAD1901 (RAD), ([…]). At euthanasia, body weight as well as uterine wet weight was measured prior to cryopreservation of the uterus. […] For FIG. 8C, ESR1 and β-actin expression in extracts made from pulverized uterine tissues were analyzed by immunoblot as in FIG. 5 (left). ESR1 expression relative to β-actin was quantitated as in FIG. 6 (right). Significant downregulation (*p<0.05) of ESR1 was determined by ANOVA followed by Bonferroni comparison.

- ESR1 expression in uterine tissue (immunoblot) (ESR1; 0.3 mg/kg): no decrease in ESR1 expression
- uterine wet weight, single agent (ESR1; 0.3 mg/kg sc daily for 3 days): statistically significant increase
- ESR1 expression in uterine tissue (immunoblot) (ESR1; RAD1901 0.3-100 mg/kg): dose dependent downregulation
SMILES: CCNCCc1ccc(CN(CC)c2cc(OC)ccc2[C@@H]2CCc3cc(O)ccc3C2)cc1 [RAD1901, (R)-6-{2-{ethyl[4-(2-ethylaminoethyl)benzyl]amino}-4-methoxyphenyl}-5,6,7,8-tetrahydronaphthalen-2-ol]
- E2-dependent induction of target gene transcription (TFF1 mRNA) [1]: inhibited
- uterine wet weight, single agent (ESR1; doses of 1 mg/kg and above, sc daily for 3 days): indistinguishable from vehicle treated animals
- E2-dependent increases in uterine wet weight (ESR1; with estradiol 10 μg/kg, RAD1901 0.3-100 mg/kg): inhibit E2-dependent increases in uterine wet weight
